In this assay the test system is Swiss mice, Sarcoma 180 sc, mean tumor weight T/C. As to the kind of experiment: NCI In Vivo Anticancer Drug Screen. Data for tumor model Sarcoma 180 (subcutaneous) in Swiss mice. The note with it: endpoint: mean tumor weight, higher = larger tumour. The essentials: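 Transplantable tumors were established in mice, compound was given, then survival or tumor size was recorded. The treated value was divided by the vehicle-control value.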

[1] abbreviates: dose: 750.0 mg/kg/injection, schedule: Q01DX007 (ip), vehicle: carboxymethylcellulose (CMC).
Setting [2] is: dose: 62.5 mg/kg/injection, schedule: Q01DX007 (ip), vehicle: saline.
[3] abbreviates: dose: 125.0 mg/kg/injection, schedule: Q01DX007 (ip), vehicle: saline.
Where [4] appears, read: dose: 250.0 mg/kg/injection, schedule: Q#A X014 (ip), vehicle: saline.
The mark [5] stands for this setting: dose: 333.0 mg/kg/injection, schedule: Q01DX007 (ip), vehicle: other.
Where [6] appears, read: dose: 500.0 mg/kg/injection, schedule: Q01DX007 (ip), vehicle: other.
Where [7] appears, read: dose: 750.0 mg/kg/injection, schedule: Q01DX007 (ip), vehicle: other.
Setting [8] is: dose: 222.0 mg/kg/injection, schedule: Q01DX007 (ip), vehicle: saline.

SMILES strings stand for the structures. “And” between values parts separate entries of the source, which are not always exact repeats. Equal entries are not always repeated.

The text below walks through data of PubChem BioAssay AID342 (DTP/NCI, 2004).

For the molecule `CCCCC(=O)OCC1OC(n2cnc3c(=S)nc[nH]c32)C(OC(=O)CCCC)C1OC(=O)CCCC` (stereo unspecified), the T/C – broadly, the result in the treated group divided by that in the control group, in per cent – was 69 % of control (dose: 75.0 mg/kg/injection, schedule: Q01DX007 (ip), vehicle: carboxymethylcellulose (CMC)); 34 % of control (dose: 125.0 mg/kg/injection, schedule: Q01DX007 (ip), vehicle: carboxymethylcellulose (CMC)); 96 % of control (dose: 220.0 mg/kg/injection, schedule: Q01DX007 (ip), vehicle: carboxymethylcellulose (CMC)); 81 % of control (dose: 335.0 mg/kg/injection, schedule: Q01DX007 (ip), vehicle: carboxymethylcellulose (CMC)); 43 % of control under setting [1].

For the molecule `CCCCCC[C@@H](O)C/C=C\CCCCCCCC(=O)O`, the T/C is, setting by setting: (dose: 31.3 mg/kg/injection, schedule: Q01DX007 (ip), vehicle: saline) 59 % of control; under setting [2], 95 % of control; under setting [3], 87 % of control.

Turning to `CC(O)C(NCNC(=O)C1=C(O)C2(O)C(=O)C3=C(O)c4c(O)cccc4C(C)(O)C3CC2C(N(C)C)C1=O)C(=O)O` (stereo unspecified), under setting [4], the T/C is 44 % of control and 46 % of control.

For `CC(=O)Nc1c(Cl)c(Cl)c2c(c1Cl)Cc1cc(F)ccc1-2`, the T/C under setting [2] was 78 % of control; the T/C (dose: 111.0 mg/kg/injection, schedule: Q01DX007 (ip), vehicle: other) was 24 % of control; the T/C (dose: 111.0 mg/kg/injection, schedule: Q#A X014 (ip), vehicle: saline) was 31 % of control and 34 % of control; the T/C under setting [3] is 81 % of control; the T/C (dose: 166.5 mg/kg/injection, schedule: Q#A X014 (ip), vehicle: saline) is 28 % of control and 31 % of control; the T/C under setting [4] was 18 % of control and 35 % of control. The T/C by setting is: under setting [5], 36 % of control; (dose: 375.0 mg/kg/injection, schedule: Q#A X014 (ip), vehicle: saline) 21 % of control; under setting [6], 39 % of control; under setting [7], 32 % of control.

As to `Nc1ccn(C2OC(CO)C(O)C2O)c(=O)n1` (stereo unspecified), the T/C is 47 % of control and 51 % of control (dose: 8.0 mg/kg/injection, schedule: Q01DX007 (ip), vehicle: saline); 61 % of control and 70 % of control (dose: 12.0 mg/kg/injection, schedule: Q01DX007 (ip), vehicle: saline); 51 % of control and 73 % of control (dose: 27.0 mg/kg/injection, schedule: Q01DX007 (ip), vehicle: saline); 37 % of control and 46 % of control (dose: 40.0 mg/kg/injection, schedule: Q01DX007 (ip), vehicle: saline); 13 % of control and 16 % of control (dose: 60.0 mg/kg/injection, schedule: Q01DX007 (ip), vehicle: saline); 10 % of control (dose: 90.0 mg/kg/injection, schedule: Q01DX007 (ip), vehicle: saline).

In the case of `CO[C@@]12[C@H](COC(N)=O)C3=C(C(=O)C(C)=C(N)C3=O)N1C[C@@H]1N[C@@H]12`, the T/C is 113 % of control (dose: 0.12 mg/kg/injection, schedule: Q#A X014 (ip), vehicle: carboxymethylcellulose (CMC)); 73 % of control (dose: 0.25 mg/kg/injection, schedule: Q#A X014 (ip), vehicle: carboxymethylcellulose (CMC)); 57 % of control (dose: 0.5 mg/kg/injection, schedule: Q#A X014 (ip), vehicle: carboxymethylcellulose (CMC)); 39 % of control (dose: 1.5 mg/kg/injection, schedule: Q#A X014 (ip), vehicle: carboxymethylcellulose (CMC)); 17 % of control (dose: 2.0 mg/kg/injection, schedule: Q#A X014 (ip), vehicle: carboxymethylcellulose (CMC)); 69 % of control (dose: 262.0 micrograms/kg/injection, schedule: Q01DX007 (ip), vehicle: carboxymethylcellulose (CMC)). Further, the T/C is 98 % of control (dose: 525.0 micrograms/kg/injection, schedule: Q01DX007 (ip), vehicle: carboxymethylcellulose (CMC)); 84 % of control (dose: 1050.0 micrograms/kg/injection, schedule: Q01DX007 (ip), vehicle: carboxymethylcellulose (CMC)); 49 % of control (dose: 2100.0 micrograms/kg/injection, schedule: Q01DX007 (ip), vehicle: carboxymethylcellulose (CMC)).

In the case of `C[C@]12CC[C@H](O)C[C@@H]1CC[C@@H]1[C@@H]2C(=O)C[C@]2(C)C3=CC(=O)O[C@H]3C[C@@H]12`, the T/C runs as follows: (dose: 5.0 mg/kg/injection, schedule: Q01DX007 (sc), vehicle: steriod suspending solution) 103 % of control; (dose: 10.0 mg/kg/injection, schedule: Q01DX007 (sc), vehicle: steriod suspending solution) 97 % of control; (dose: 40.0 mg/kg/injection, schedule: Q01DX007 (sc), vehicle: steriod suspending solution) 95 % of control.

For `Oc1cc(O)c2c(c1)O[C@H](c1ccc(O)c(O)c1)[C@@H](O)C2`, the T/C by setting is: (dose: 6.25 mg/kg/injection, schedule: Q01DX007 (ip), vehicle: saline) 84 % of control; (dose: 12.5 mg/kg/injection, schedule: Q01DX007 (ip), vehicle: saline) 99 % of control; (dose: 25.0 mg/kg/injection, schedule: Q01DX007 (ip), vehicle: saline) 88 % of control; (dose: 100.0 mg/kg/injection, schedule: Q01DX007 (ip), vehicle: saline) 83 % of control; (dose: 200.0 mg/kg/injection, schedule: Q01DX007 (ip), vehicle: saline) 87 % of control; (dose: 400.0 mg/kg/injection, schedule: Q01DX007 (ip), vehicle: saline) 80 % of control.

Take `Clc1ccc2c(c1)Cc1cc(N=Cc3ccccc3Cl)ccc1-2`: the T/C reads like this: (dose: 42.0 mg/kg/injection, schedule: Q01DX007 (ip), vehicle: other) 77 % of control; (dose: 64.0 mg/kg/injection, schedule: Q01DX007 (ip), vehicle: other) 108 % of control; (dose: 66.0 mg/kg/injection, schedule: Q01DX007 (ip), vehicle: saline) 57 % of control; (dose: 99.0 mg/kg/injection, schedule: Q01DX007 (ip), vehicle: saline) 52 % of control; (dose: 148.0 mg/kg/injection, schedule: Q01DX007 (ip), vehicle: saline) 38 % of control; (dose: 222.0 mg/kg/injection, schedule: Q01DX007 (ip), vehicle: other) 42 % of control and 46 % of control. Further, the T/C was 31 % of control under setting [8]; 20 % of control and 40 % of control under setting [5]; 40 % of control (dose: 492.0 mg/kg/injection, schedule: Q01DX007 (ip), vehicle: carboxymethylcellulose (CMC)); 22 % of control under setting [6]; 31 % of control under setting [1]; 20 % of control under setting [7].

As to `C[C@]12CCC(=O)C=C1CC[C@@H]1[C@@H]2[C@@H](O)C[C@@]2(C)[C@H]1CC[C@]2(O)C(=O)CF`, the T/C was 55 % of control (dose: 25.0 mg/kg/injection, schedule: Q#A X014 (sc), vehicle: steriod suspending solution); 43 % of control (dose: 125.0 mg/kg/injection, schedule: Q#A X014 (sc), vehicle: steriod suspending solution); 36 % of control (dose: 148.0 mg/kg/injection, schedule: Q01DX007 (sc), vehicle: steriod suspending solution); 26 % of control (dose: 222.0 mg/kg/injection, schedule: Q01DX007 (sc), vehicle: saline); 19 % of control (dose: 222.0 mg/kg/injection, schedule: Q01DX007 (sc), vehicle: steriod suspending solution); 43 % of control (dose: 250.0 mg/kg/injection, schedule: Q#A X014 (sc), vehicle: steriod suspending solution). Besides, the T/C (dose: 333.0 mg/kg/injection, schedule: Q01DX007 (sc), vehicle: saline) was 25 % of control; the T/C (dose: 500.0 mg/kg/injection, schedule: Q01DX007 (sc), vehicle: saline) was 21 % of control; the T/C (dose: 750.0 mg/kg/injection, schedule: Q01DX007 (sc), vehicle: saline) is 20 % of control; the T/C (dose: 1125.0 mg/kg/injection, schedule: Q01DX007 (sc), vehicle: steriod suspending solution) was 13 % of control.

For the molecule `CC1CN(C(=O)CCl)c2ccccc2N1C(=O)CCl` (stereo unspecified), the T/C is, setting by setting: (dose: 2.0 mg/kg/injection, schedule: Q01DX007 (ip), vehicle: carboxymethylcellulose (CMC)) 121 % of control; (dose: 4.0 mg/kg/injection, schedule: Q01DX007 (ip), vehicle: carboxymethylcellulose (CMC)) 114 % of control.

Consider `Cc1cc(=O)[nH]c(N=Nc2c(O)[nH]c3ccccc23)n1`, for which the T/C under setting [8] is 58 % of control; the T/C (dose: 333.0 mg/kg/injection, schedule: Q01DX007 (ip), vehicle: saline) was 75 % of control; the T/C (dose: 500.0 mg/kg/injection, schedule: Q01DX007 (ip), vehicle: saline) was 43 % of control; the T/C (dose: 750.0 mg/kg/injection, schedule: Q01DX007 (ip), vehicle: saline) was 59 % of control.
